# Patent publication US4525347A, “Antiinflammatory analgesic gelled ointment” (Kowa Company Limited, priority 1983, dated 1985)
# Like-named read-outs stand apart in the source and are kept apart here.
# Tests used:
# [1] = Effect of pH of the ointment on indomethacin (crystallization, decomposition); type: physicochemical
# [2] = Skin absorption of indomethacin suspended in conventional ointment bases; type: in vivo, human beings; details: topical
# [3] = in water and common media; cited from earlier work
# [4] = Topical administration of indomethacin: activity and adverse reactions; type: in vivo; details: administered topically
# [5] = Effect of adjuvant on skin absorption of indomethacin; type: in vivo; details: combination with an adjuvant
# [6] = cited from earlier work
compound,measurement,setting,value
"COc1ccc2c(c1)c(CC(=O)O)c(C)n2C(=O)c1ccc(Cl)cc1 [indomethacin, Indomethacin]",decomposition of indomethacin,[1]; pH level above 7.5,decomposed indomethacin
same,crystallization during the ointment preparation,[1]; pH level below 4.8,crystallization of indomethacin
same,absorption by the skin,[2],remain unabsorbed by the skin of human beings
same,solubility,[3],only slightly soluble
same,adverse reactions attributable to the administration of indomethacin,[4],completely eliminated
same,"antiinflammatory analgesic activity, topical vs internal use",[4],to the same extent as attained by its internal use
same,absorption of indomethacin by the skin,[5],substantially increased
same,adverse effects,[6]; oral use,gastroenteric disorders
same,adverse effects,"[6]; suppository form, patient suffering from peptic ulcer","decreased appetite, nausea, vomiting, stomach ache, diarrhea and loose passage"
